Test results as given in US20100184790A1, “PYRROLO[2,3-B]PYRIDINE COMPOUNDS, AZAINDOLE COMPOUNDS USED FOR SYNTHESIZING SAID PYRROLO[2,3-B]PYRIDINE COMPOUNDS, METHODS FOR THE PRODUCTION THEREOF, AND USES THEREOF” (CENTRE NATIONAL DE LA RECHERCHE SCIENTIFIQUE, priority 2007, published 2010).
Like-named read-outs stand apart in the source and are kept apart here.

Experiments:
CDK2/cyclin A = molecular target: T1, CDK2/cyclin A (Homo sapiens, UniProt P24941); test: CDK2/cyclin A kinase assay; type: biochemical; conditions: 15 μM ATP, 30° C., histone H1; read-out: IC50 CDK2/cyclinA
T1 construct: made in house; host or cells: insect cells
Experimental: CDK2/cyclin A (human, recombinant, expressed in insect cells) was assayed as described for CDK1/cyclin B.

CDK5/p25 = CDK5/p25 (Homo sapiens, UniProt Q00535); test: CDK5/p25 kinase assay; type: biochemical, mammalian
Experimental: CDK5/p25 was reconstituted by mixing equal amounts of recombinant mammalian CDK5 and p25 expressed in E. coli as GST (glutathione S-transferase) fusion protein and purified by affinity chromatography on glutathione-agarose (vectors provided by Doctor L. H. Tsai) (p25 is a truncated version of p35, the 35-kDa CDK5 activator). Its activity was assayed with histone H1 in buffer C as described for CDK1/cyclin B.

GSK-3α/β = GSK-3α/β kinase assay (GS-1 peptide); type: biochemical, porcine; conditions: 15 μM ATP, 30° C.
Experimental: After incubating at 30° C. for 30 (thirty) minutes, the 25 μl aliquots of the supernatant were treated as described above.

CK1δ/ε = CK1δ/ε kinase assay (CK1-specific peptide); type: biochemical, porcine; conditions: 15 μM ATP, 30° C.
Experimental: CK1δ/ε was purified from porcine brain by affinity chromatography on an immobilized axin fragment. It was assayed as described for CDK1 but using a CK1-specific peptide substrate.

DYRK1A = DYRK1A (Rattus norvegicus, UniProt Q63470); test: DYRK1A kinase assay (myelin basic protein); type: biochemical
SH-SY5Y cells = test: Cell survival, MTS reduction, SH-SY5Y; type: cell-based; conditions: Homo sapiens, Table 2, exposed for 24 hours, read-out: IC50 survival of SH-SY5Y cells (MTS reduction)
Experimental: The human neuroblastoma cell line SH-SY5Y was grown in a DMEM medium with L-glutamine originating from Invitrogen (Cergy Pontoise, France), antibiotics and 10% by volume of FCS originating from Invitrogen. […] These compounds were also tested at various concentrations with regard to their effects on SH-SY5Y and HEK293 cells. […] The IC50 values were calculated from the dose-response curves and are given in micromoles (mean±standard deviation of two independent measurements carried out in triplicate). […] The survival of the cells was estimated by the assaying of the degree of reduction of MTS induced by this exposure. […] The ICS© values were calculated from dose-response curves and are given in micromoles in table 3 below.

CDK1/cyclin B = CDK1/cyclin B kinase assay (histone H1, [γ-33P]-ATP); conditions: read-out: IC50 CDK1/cyclin B, 15 μM ATP, 30° C.
CDK9/cyclin T = molecular target: T2, CDK9/cyclin T (Homo sapiens, UniProt P50750); test: CDK9/cyclin T kinase assay; type: biochemical; conditions: 15 μM ATP, 30° C., pRB fragment
T2 construct: made in house; host or cells: insect cells

[1] = 15 μM ATP, 30° C., histone H1, read-out: IC50 CDK5/p25
[2] = 15 μM ATP, 30° C., myelin basic protein, read-out: IC50 DYRK1A

Sequence of CDK5/p25 (Q00535 whole entry, species assumed, the tested form may be a part): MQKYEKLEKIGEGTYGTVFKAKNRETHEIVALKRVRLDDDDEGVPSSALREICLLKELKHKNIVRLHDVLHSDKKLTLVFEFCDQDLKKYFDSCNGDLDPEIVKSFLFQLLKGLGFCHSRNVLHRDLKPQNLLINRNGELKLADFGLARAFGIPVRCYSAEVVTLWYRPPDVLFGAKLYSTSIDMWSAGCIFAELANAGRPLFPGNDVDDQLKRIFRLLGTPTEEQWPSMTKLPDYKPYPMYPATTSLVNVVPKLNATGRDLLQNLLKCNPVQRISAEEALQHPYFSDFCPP
Sequence of CDK5/p25 (Q15078 99-307 partner limits assumed, species assumed): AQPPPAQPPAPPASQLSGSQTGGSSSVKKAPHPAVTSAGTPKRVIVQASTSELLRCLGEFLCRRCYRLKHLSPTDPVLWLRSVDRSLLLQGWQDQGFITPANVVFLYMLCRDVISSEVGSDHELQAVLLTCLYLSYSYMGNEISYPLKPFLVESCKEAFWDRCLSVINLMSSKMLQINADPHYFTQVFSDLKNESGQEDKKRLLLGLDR
T2 sequence (P50750 whole entry, the tested form may be a part): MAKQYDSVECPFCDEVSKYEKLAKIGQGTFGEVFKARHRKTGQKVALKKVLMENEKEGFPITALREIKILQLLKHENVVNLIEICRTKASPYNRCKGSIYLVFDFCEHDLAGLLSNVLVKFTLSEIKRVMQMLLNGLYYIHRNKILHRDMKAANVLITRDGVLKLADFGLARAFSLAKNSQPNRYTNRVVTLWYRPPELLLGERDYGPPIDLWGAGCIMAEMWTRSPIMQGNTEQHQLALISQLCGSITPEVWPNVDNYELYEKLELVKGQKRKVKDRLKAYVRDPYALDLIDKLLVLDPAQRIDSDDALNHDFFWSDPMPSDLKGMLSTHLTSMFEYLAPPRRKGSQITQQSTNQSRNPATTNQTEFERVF
T2 sequence (O60563 whole entry partner, the tested form may be a part): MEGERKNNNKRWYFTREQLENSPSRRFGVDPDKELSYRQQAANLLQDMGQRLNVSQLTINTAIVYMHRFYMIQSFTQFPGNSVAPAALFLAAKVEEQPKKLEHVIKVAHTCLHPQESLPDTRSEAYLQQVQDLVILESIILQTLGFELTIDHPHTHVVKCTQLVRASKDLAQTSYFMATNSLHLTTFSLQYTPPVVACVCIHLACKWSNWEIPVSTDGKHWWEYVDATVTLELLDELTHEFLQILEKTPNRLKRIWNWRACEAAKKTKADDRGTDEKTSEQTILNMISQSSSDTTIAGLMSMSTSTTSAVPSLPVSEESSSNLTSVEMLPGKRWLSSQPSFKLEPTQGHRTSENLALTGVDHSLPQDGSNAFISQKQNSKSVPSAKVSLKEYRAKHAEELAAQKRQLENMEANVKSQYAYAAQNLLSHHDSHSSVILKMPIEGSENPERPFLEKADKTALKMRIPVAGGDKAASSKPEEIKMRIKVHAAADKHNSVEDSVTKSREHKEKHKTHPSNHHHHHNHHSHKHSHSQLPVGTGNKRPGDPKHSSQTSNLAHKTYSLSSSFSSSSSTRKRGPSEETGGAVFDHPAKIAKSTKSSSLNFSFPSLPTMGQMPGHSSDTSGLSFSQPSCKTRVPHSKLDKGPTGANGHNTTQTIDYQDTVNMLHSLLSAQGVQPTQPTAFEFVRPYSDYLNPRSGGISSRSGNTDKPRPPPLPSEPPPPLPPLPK

| Compound | melting point | IC50 (CDK2/cyclin A) | IC50 (CDK5/p25; [1]) | IC50 (GSK-3α/β) | IC50 (CK1δ/ε) | IC50 (DYRK1A; [2]) | IC50 (CDK1/cyclin B) | IC50 (SH-SY5Y cells) | IC50 (CDK9/cyclin T) | IC50 (CDK5/p25) | IC50 (DYRK1A) |
| --- | --- | --- | --- | --- | --- | --- | --- | --- | --- | --- | --- |
| CCCC#Cc1ccnc2[nH]cc(-c3ccnc(N)n3)c12 [Meriolin 18, 3-[(2-amino)pyrimidin-4-yl]-4-(pent-1-ynyl)-1H-pyrrolo[2,3-b]pyridine] | – | 0.005 µM | 0.0045 µM | 0.082 µM | 1.3 µM | 0.02 µM | 0.011 µM | 0.1 µM | – | – | – |
| COc1ccnc2c1c(-c1ccnc(N)n1)cn2C [Meriolin 9, 3-[(2-amino)pyrimidin-4-yl]-4-methoxy-1-methyl-1H-pyrrolo[2,3-b]pyridine] | – | – | – | – | – | – | 25 µM | – | – | – | – |
| Nc1nccc(-c2c[nH]c3nccc(CCc4ccccc4)c23)n1 [Meriolin 22, 3-[(2-amino)pyrimidin-4-yl]-4-phenethyl-1H-pyrrolo[2,3-b]pyridine] | 196 to 198 °C | 0.073 µM | 0.13 µM | 0.8 µM | – | 0.073 µM | 0.2 µM | 2.4 µM | – | – | – |
| COc1ccnc2[nH]cc(-c3ccnc(SC)n3)c12 [Meriolin 12, 4-methoxy-3-[2-(methylsulfanyl)pyrimidin-4-yl]-1H-pyrrolo[2,3-b]pyridine, reference compound] | – | – | – | 7 µM | 0.6 µM | 1 µM | 1.8 µM | > 100 µM | – | – | – |
| CC(C)Oc1ccnc2[nH]cc(-c3ccnc(N)n3)c12 [Meriolin 6, 3-[(2-amino)pyrimidin-4-yl]-4-(1-methylethoxy)-1H-pyrrolo[2,3-b]pyridine] | – | – | – | 0.021 µM | 0.14 µM | – | 0.008 µM | – | – | – | – |
| Nc1nccc(-c2c[nH]c3nccc(-c4ccccc4)c23)n1 [Meriolin 23, 3-[(2-amino)pyrimidin-4-yl]-4-phenyl-1H-pyrrolo[2,3-b]pyridine] | > 210 °C | 0.009 µM | 0.007 µM | 0.08 µM | – | 0.05 µM | 0.01 µM | 0.088 µM | – | – | – |
| Oc1ccnc2[nH]cc(-c3ccncn3)c12 [Meriolin 13, 3-(pyrimidin-4-yl)-4-hydroxy-1H-pyrrolo[2,3-b]pyridine] | – | – | – | 1.8 µM | – | – | – | 28 µM | – | – | – |
| Cn1cc(-c2ccnc(N)n2)c2c(O)ccnc21 [Meriolin 8, 3-[(2-amino)pyrimidin-4-yl]-4-hydroxy-1-methyl-1H-pyrrolo[2,3-b]pyridine] | – | – | – | 4.6 µM | 2.3 µM | 1.2 µM | 1.2 µM | > 30 µM | – | – | – |
| Nc1nccc(-c2c[nH]c3nccc(OCC4CCCCC4)c23)n1 [Meriolin 16, 3-[(2-amino)pyrimidin-4-yl]-4-(cyclohexylmethoxy)-1H-pyrrolo[2,3-b]pyridine] | > 210 °C | 0.0012 µM | 0.003 µM | 0.006 µM | > 0.1 µM | 0.045 µM | 0.0022 µM | 0.022 µM | – | – | – |
| Nc1nccc(-c2c[nH]c3nccc(OC4CCCCC4)c23)n1 [Meriolin 17, 3-[(2-amino)pyrimidin-4-yl]-4-(cyclohexyloxy)-1H-pyrrolo[2,3-b]pyridine] | > 210 °C | 0.0021 µM | 0.0021 µM | 0.0041 µM | > 0.1 µM | 0.026 µM | 0.0029 µM | 0.027 µM | – | – | – |
| COc1cc(Br)nc2[nH]cc(-c3ccnc(N)n3)c12 [Meriolin 4n, 3-[(2-amino)pyrimidin-4-yl]-6-bromo-4-methoxy-1H-pyrrolo[2,3-b]pyridine] | > 210 °C | – | – | – | – | – | – | – | – | – | – |
| Nc1nccc(-c2c[nH]c3nccc(OCc4ccccc4)c23)n1 [Meriolin 15, 3-[(2-amino)pyrimidin-4-yl]-4-(benzyloxy)-1H-pyrrolo[2,3-b]pyridine] | > 210 °C | 0.0016 µM | 0.002 µM | 0.0033 µM | 0.13 µM | 0.04 µM | 0.0023 µM | 0.013 µM | 0.0072 µM | – | – |
| COc1ccnc2[nH]cc(-c3ccncn3)c12 [Meriolin 14, 4-methoxy-3-(pyrimidin-4-yl)-1H-pyrrolo[2,3-b]pyridine] | – | – | – | 1.1 µM | 0.6 µM | 0.23 µM | 1.3 µM | 10.2 µM | – | – | – |
| Nc1nccc(-c2c3c(O)ccnc3n3c(N)nccc23)n1 [Variolin B, reference compound] | – | 0.08 µM | – | 0.07 µM | 0.005 µM | – | 0.06 µM | 0.24 µM | 0.026 µM | 0.09 µM | 0.08 µM |

The next lines start with results.

| melting point | IC50 (CDK2/cyclin A) | IC50 (CDK5/p25; [1]) | IC50 (GSK-3α/β) | IC50 (CK1δ/ε) | IC50 (DYRK1A; [2]) | IC50 (CDK1/cyclin B) | Compound | IC50 (SH-SY5Y cells) | IC50 (CDK9/cyclin T) | IC50 (CDK5/p25) | IC50 (DYRK1A) |
| --- | --- | --- | --- | --- | --- | --- | --- | --- | --- | --- | --- |
| > 210 °C | – | – | – | – | – | – | Nc1nccc(-c2c[nH]c3nccc(C#Cc4ccccc4)c23)n1 [Meriolin 21, 3-[(2-amino)pyrimidin-4-yl]-4-(phenyleth-1-ynyl)-1H-pyrrolo[2,3-b]pyridine] | – | – | – | – |
| – | – | – | 2 µM | 3 µM | 0.13 µM | 0.24 µM | Nc1nccc(-c2c[nH]c3nccc(Cl)c23)n1 [Meriolin 10, 3-[(2-amino)pyrimidin-4-yl]-4-chloro-1H-pyrrolo[2,3-b]pyridine] | 1.92 µM | – | – | – |
| – | > 10 µM | – | 63 µM | 100 µM | – | 35 µM | COCCOc1ccnc2[nH]cc(-c3ccnc(N)n3)c12 [Meriolin 7, 3-(2-aminopyrimidin-4-yl)-4-(2-methoxyethoxyl)-1H-pyrrolo[2,3-b]pyridine] | > 100 µM | – | – | – |
| – | – | – | 0.025 µM | 0.2 µM | 0.037 µM | 0.007 µM | CCCOc1ccnc2[nH]cc(-c3ccnc(N)n3)c12 [Meriolin 5, 3-[(2-amino)pyrimidin-4-yl]-4-propoxy-1H-pyrrolo[2,3-b]pyridine] | 0.026 µM | – | – | – |
| – | – | – | 0.03 µM | 0.1 µM | 0.032 µM | 0.01 µM | CCOc1ccnc2[nH]cc(-c3ccnc(N)n3)c12 [Meriolin 4, 3-[(2-amino)pyrimidin-4-yl]-4-ethoxy-1H-pyrrolo[2,3-b]pyridine] | 0.081 µM | – | – | – |
| > 210 °C | 0.195 µM | 0.2 µM | 1.75 µM | 8.1 µM | 0.056 µM | 0.35 µM | CCCCCc1ccnc2[nH]cc(-c3ccnc(N)n3)c12 [Meriolin 19, 3-[(2-amino)pyrimidin-4-yl]-4-pentyl-1H-pyrrolo[2,3-b]pyridine] | 13 µM | – | – | – |
